System: cortex metabolites
Assay: Metabolomic analysis of cortex
Assay type: in vivo, mice
Details: cortex
Experimental: Metabolomic analyses were conducted at Metabolon (Durham, NC, USA) as described previously. For statistical analyses and data display, any missing values were assumed to be below the limits of detection and imputed with the compound minimum (minimum value imputation). An estimate of the FDR (Q value) was calculated to take into account the multiple comparisons that normally occur in metabolomics-based studies, with Q < 0.05 used as an indication of high confidence in a result. The MetaboAnalyst tool was used to generate heat maps.

## Cc1ccc(N(/N=C/c2cccc(OC(F)(F)F)c2)C(=O)C(F)(F)F)c(C)c1 [CAD-31]
AD+31/AD, p-value 0.9434
  mannose-6-phosphate Fold Change: 1.05
AD+31/AD, p-value 0.9957
  cytidine 5'-monophospho-N-acetylneuraminic acid Fold Change: 1
C+31/C, p-value 0.0002
  ergothioneine Fold Change: 0.56
C+31/C, p-value 0.0006
  17-methylstearate Fold Change: 0.54
C+31/C, p-value 0.0029
  phenol sulfate Fold Change: 0.41
C+31/C, p-value 0.0034
  N-delta-acetylornithine Fold Change: 1.51
C+31/C, p-value 0.0046
  gamma-glutamylhistidine Fold Change: 0.55
C+31/C, p-value 0.0049
  1-palmitoylglycerol (16:0) Fold Change: 0.67
C+31/C, p-value 0.0052
  dihomo-linoleate (20:2n6) Fold Change: 0.53
C+31/C, p-value 0.0058
  linoleoyl ethanolamide Fold Change: 0.52
C+31/C, p-value 0.0074
  arachidate (20:0) Fold Change: 0.59
C+31/C, p-value 0.0076
  pyroglutamine* Fold Change: 1.27
C+31/C, p-value 0.0085
  adenosine 2'-monophosphate (2'-AMP) Fold Change: 1.49
C+31/C, p-value 0.0095
  docosatrienoate (22:3n3) Fold Change: 0.35
C+31/C, p-value 0.01
  stearate (18:0) Fold Change: 0.61
C+31/C, p-value 0.0112
  nonadecanoate (19:0) Fold Change: 0.63
C+31/C, p-value 0.0125
  1-oleoylglycerol (18:1) Fold Change: 0.6
C+31/C, p-value 0.0132
  10-nonadecenoate (19:1n9) Fold Change: 0.6
C+31/C, p-value 0.016
  3-hydroxybutyrylcarnitine (2) Fold Change: 1.78
C+31/C, p-value 0.0161
  adrenate (22:4n6) Fold Change: 0.5
C+31/C, p-value 0.0172
  oleate/vaccenate (18:1) Fold Change: 0.59
C+31/C, p-value 0.0212
  eicosenoate (20:1) Fold Change: 0.61
  lactate Fold Change: 1.26
C+31/C, p-value 0.0241
  palmitate (16:0) Fold Change: 0.65
C+31/C, p-value 0.0267
  margarate (17:0) Fold Change: 0.61
C+31/C, p-value 0.0327
  2-hydroxydecanoate Fold Change: 0.68
C+31/C, p-value 0.0338
  1-arachidonylglycerol (20:4) Fold Change: 0.66
C+31/C, p-value 0.0349
  3-hydroxybutyrate (BHBA) Fold Change: 1.87
C+31/C, p-value 0.035
  2-palmitoylglycerol (16:0) Fold Change: 0.65
C+31/C, p-value 0.0357
  succinylcarnitine Fold Change: 0.72
C+31/C, p-value 0.0363
  oleoyl-oleoyl-glycerol (18:1/18:1) [2]* Fold Change: 1.12
C+31/C, p-value 0.0372
  acetyl CoA Fold Change: 1.87
C+31/C, p-value 0.0376
  erucate (22:1n9) Fold Change: 0.64
C+31/C, p-value 0.0387
  glycerol 3-phosphate Fold Change: 0.8
C+31/C, p-value 0.0388
  docosadienoate (22:2n6) Fold Change: 0.62
C+31/C, p-value 0.0422
  acetylcarnitine Fold Change: 1.53
C+31/C, p-value 0.0423
  1-docosahexaenoylglycerol (22:6) Fold Change: 0.64
C+31/C, p-value 0.0449
  1-stearoyl-GPG (18:0) Fold Change: 0.59
C+31/C, p-value 0.0462
  arachidonoyl ethanolamide Fold Change: 0.86
  glucosamine-6-phosphate Fold Change: 1.4
C+31/C, p-value 0.0465
  glutamate Fold Change: 1.09
C+31/C, p-value 0.0476
  tricosenoate (23:1) Fold Change: 0.64
C+31/C, p-value 0.0477
  mead acid (20:3n9) Fold Change: 0.6
C+31/C, p-value 0.0695
  adenosine 5'-diphosphoribose (ADP-ribose) Fold Change: 1.15
C+31/C, p-value 0.0888
  sedoheptulose-7-phosphate Fold Change: 1.15
C+31/C, p-value 0.0897
  2-hydroxystearate Fold Change: 0.58
C+31/C, p-value 0.0923
  UDP-N-acetylglucosamine/galactosamine Fold Change: 1.08
C+31/C, p-value 0.0938
  2-oleoylglycerol (18:1) Fold Change: 0.77
C+31/C, p-value 0.0994
  putrescine Fold Change: 1.2
C+31/C, p-value 0.1114
  2-methylcitrate/homocitrate Fold Change: 1.09
C+31/C, p-value 0.126
  1-palmitoyl-GPG (16:0)* Fold Change: 0.57
C+31/C, p-value 0.1316
  mannose-6-phosphate Fold Change: 1.33
C+31/C, p-value 0.1579
  glutamate, gamma-methyl ester Fold Change: 1.35
C+31/C, p-value 0.1772
  anserine Fold Change: 1.18
C+31/C, p-value 0.179
  gulonate* Fold Change: 1.11
C+31/C, p-value 0.199
  glucose 6-phosphate Fold Change: 1.27
C+31/C, p-value 0.2317
  fructose-6-phosphate Fold Change: 1.26
C+31/C, p-value 0.233
  methylphosphate Fold Change: 1.1
C+31/C, p-value 0.2649
  1-oleoyl-2-linoleoyl-GPC (18:1/18:2)* Fold Change: 0.92
C+31/C, p-value 0.286
  N-formylmethionine Fold Change: 1.07
C+31/C, p-value 0.2996
  acetylphosphate Fold Change: 1.11
C+31/C, p-value 0.3099
  phosphoethanolamine Fold Change: 1.04
C+31/C, p-value 0.3211
  azelate (nonanedioate) Fold Change: 0.81
C+31/C, p-value 0.3291
  methionine Fold Change: 1.08
C+31/C, p-value 0.3422
  coenzyme A Fold Change: 0.88
C+31/C, p-value 0.3687
  arabinose Fold Change: 1.05
C+31/C, p-value 0.3875
  1-palmitoyl-2-gamma-linolenoyl-GPC (16:0/18:3n6)* Fold Change: 0.94
C+31/C, p-value 0.4046
  3-sulfo-nervonoyl-galactosylceramide (d18:1/24:1) Fold Change: 0.97
C+31/C, p-value 0.4061
  N-acetylmethionine Fold Change: 0.96
C+31/C, p-value 0.4075
  UDP-galactose Fold Change: 0.86
C+31/C, p-value 0.4104
  N-acetylglucosaminylasparagine Fold Change: 0.96
C+31/C, p-value 0.4172
  prolylglycine Fold Change: 0.96
C+31/C, p-value 0.4215
  1-stearoyl-GPC (18:0) Fold Change: 1.08
C+31/C, p-value 0.4319
  N-acetylalanine Fold Change: 1.04
C+31/C, p-value 0.4368
  1-oleoyl-2-arachidonoyl-GPI (18:1/20:4) * Fold Change: 1.04
C+31/C, p-value 0.4593
  1-(1-enyl-stearoyl)-2-arachidonoyl-GPE (P-18:0/20:4)* Fold Change: 0.98
C+31/C, p-value 0.4697
  UDP-glucose Fold Change: 0.92
C+31/C, p-value 0.4772
  galactose 1-phosphate Fold Change: 1.14
C+31/C, p-value 0.4871
  1-methylimidazoleacetate Fold Change: 1.07
C+31/C, p-value 0.4904
  cytidine 5'-monophospho-N-acetylneuraminic acid Fold Change: 0.95
C+31/C, p-value 0.5044
  ribose Fold Change: 1.04
C+31/C, p-value 0.512
  glycerate Fold Change: 0.86
C+31/C, p-value 0.5491
  glycerophosphoethanolamine Fold Change: 1.04
C+31/C, p-value 0.5572
  palmitoylcholine Fold Change: 0.92
C+31/C, p-value 0.5722
  1-stearoyl-2-oleoyl-GPI (18:0/18:1)* Fold Change: 1.05
C+31/C, p-value 0.5944
  sphingomyelin (d18:1/18:1, d18:2/18:0) Fold Change: 1.03
C+31/C, p-value 0.6209
  5-methylthioadenosine (MTA) Fold Change: 1.02
C+31/C, p-value 0.6443
  6-phosphogluconate Fold Change: 0.95
C+31/C, p-value 0.6796
  3-hydroxy-3-methylglutarate Fold Change: 1.02
C+31/C, p-value 0.6852
  2'-deoxycytidine Fold Change: 1.04
C+31/C, p-value 0.7525
  N-acetylglutamate Fold Change: 0.99
C+31/C, p-value 0.7663
  beta-citrylglutamate Fold Change: 1.03
C+31/C, p-value 0.8149
  O-methyltyrosine Fold Change: 1.04
C+31/C, p-value 0.8284
  N-acetyl-glucosamine 1-phosphate Fold Change: 1.06
C+31/C, p-value 0.8378
  1-palmitoyl-2-oleoyl-GPS (16:0/18:1) Fold Change: 1.01
C+31/C, p-value 0.8444
  hypoxanthine Fold Change: 1.01
C+31/C, p-value 0.8761
  lysine Fold Change: 1
C+31/C, p-value 0.9003
  hippurate Fold Change: 1.01
C+31/C, p-value 0.9027
  N-acetylneuraminate Fold Change: 1.01
C+31/C, p-value 0.9106
  1-palmitoyl-2-palmitoleoyl-GPC (16:0/16:1)* Fold Change: 1
C+31/C, p-value 0.9156
  glycerophosphoglycerol Fold Change: 1
C+31/C, p-value 0.9284
  deoxycarnitine Fold Change: 1.02
C+31/C, p-value 0.9846
  mannose Fold Change: 0.96
